Assay results reported in paper PMC6791383, “A side-by-side evaluation of [^18F]FDOPA enantiomers for non-invasive detection of neuroendocrine tumors by positron emission tomography” (Oncotarget, 2019).

Tests used:
TGP52 cells = experiment: In vitro uptake (binding) assay in TGP52 cells; type: cell-based; conditions: 30mins incubation, 1 million cells, % incubated dose/million cells
Protocol: (§1) Both [^18F]FDOPA enantiomers were initially assessed in vitro in all NET cells.
(§2) In vitro binding assays were carried out, in triplicate, in PBS with 0.5% FBS, for 30mins at ambient temperatures using 1 million cells and repeated three times. Blocking studies were carried out using 10meq of the commercial LAT1 inhibitor, 2-Aminobicyclo[2.2.1]heptane-2-carboxylic acid (TOCRIS, MN, USA). Following incubation with each tracer, cells were rinsed three times with cold PBS prior to being counted on an automated gamma counter (1282 Compugamma CS; Pharmacia/LKBNuclear, Inc.) along with external standards. Obtained counts were converted into percentage incubated dose per million cells based on normalization to external standards. Experiments were performed in triplicate and repeated three times.

LAT1 = experiment: In vivo PET-CT blocking by BCH in NET mouse models; set-up: species or system mice; conditions: all NET mouse models (PC12, STC-1, COLO-320), 10meq LAT1 inhibitor
Protocol: (§3) Mice (n=4) were injected with 9MBq (250μCi) of each tracer in 150μL of saline intravenously and anesthetized with 3% isoflurane prior to being placed on the scanner bed. Mice were kept warm with an external light source and maintained at 1% isoflurane levels while being scanned. PET imaging (2 beds; 10 min per bed) was carried out using an ARGUS small-animal PET/CT scanner (Sedecal). A CT scan (512 projections) was obtained at the end of each PET scan for anatomical co-registration. For in vivo blocking experiments, mice were injected with 10meq of LAT1 inhibitor. PET data were reconstructed using the 2-dimensional ordered subsets-expectation maximization algorithm (2D-OSEM) and corrected for dead time and radioactive decay. Data visualization and image generation were carried out using Amira 2019.1 (ThermoFisher Scientific).
(§4) Quantitative in vivo image analysis was carried out in AMIDE (SourceForge) 1.0.4 utilizing ellipsoid region-of-interest volume integrations with 3 slices entailing a depth of 1.9 mm per slice. The %ID per cc values were calculated based on a calibration factor obtained from a phantom (known radioactive quantity in a known volume).

[1] = tested on: NET xenografts (STC-1, PC12, COLO-320); experiment: Ex vivo biodistribution, across all NET mouse models; type: in vivo, mice; conditions: for brain accumulation, average in all NET mice: average over STC-1, COLO-320 and PC12 mice; for retention in small intestines, fold lower than L-[^18F]FDOPA: all NET models
Protocol: (§5) All animal studies were carried out according to regulations set forth and approved by the Johns Hopkins Animal Care and Use Committee. Female, 6- to 8-weeks-old immunodeficient NOD scid gamma (NSG) mice were subcutaneously inoculated with 1 million PC12, STC-1 or COLO-320 cells in […] of Hank’s balanced salt solution in the top flank. Tumors of 4–6 mm in diameter (typically 14-21 days post inoculation) were utilized for in vivo imaging or ex vivo biodistribution studies.
Mice (n=5 per group) were intravenously injected with 1.5MBq (40μCi) of each tracer in 150μL of saline. Ex vivo biodistribution studies were performed at 30min and 120min time points after tracer administration. Blood, liver, spleen, heart, lungs, kidneys, small intestines, stomach, muscle, fat, bone, bladder, brain and tumor tissues were retrieved, weighed, and counted in an automated gamma counter (1282 Compugamma CS). Percentage injected dose per gram (%ID/g) values were calculated based on normalization to external standards, counted in triplicate, and accounted for signal-decay correction.

STC-1 xenografts = experiment: In vivo PET-CT quantitative image analysis, STC-1 xenografts; conditions: STC-1 tumors, NSG mice, 9MBq
Protocol: as §5, §3, §4

TGP61 cells = experiment: In vitro uptake (binding) assay in TGP61 cells; type: cell-based; conditions: 30mins incubation, 1 million cells, % incubated dose/million cells
Protocol: as §1, §2

PC12 cells = experiment: In vitro uptake (binding) assay in PC12 cells; type: cell-based; conditions: 30mins incubation, 1 million cells
Protocol: as §1, §2

N[C@H](Cc1cc(O)c(O)cc1[18F])C(=O)O [D-[^18F]FDOPA, 3,4-dihydroxy-6-[^18F]fluoro-D-phenylalanine]
in vitro uptake (TGP52 cells): 3.18±0.19%
tumor uptake after in vivo blocking by BCH (LAT1): significantly reduced
brain accumulation, average in all NET mice ([1]; 30min p.i.): 0.31±0.05 %ID/g
brain accumulation, average in all NET mice ([1]; 120min p.i.): 0.34±0.08 %ID/g
hepatic retention, fold lower than L-[^18F]FDOPA ([1]; NET models): up to 4 fold
renal retention, fold lower than L-[^18F]FDOPA ([1]; NET models): up to 4 fold
retention in small intestines, fold lower than L-[^18F]FDOPA ([1]; 30min): up to 4 fold
retention in small intestines, fold lower than L-[^18F]FDOPA ([1]; 120min p.i.): up to 7 fold
tumor uptake, quantitative PET image analysis (STC-1 xenografts; 30min post i.v. injection): 12.01±1.61 %ID/cc
tumor uptake, quantitative PET image analysis (STC-1 xenografts; 120min post i.v. injection): 3.34±0.32 %ID/cc
in vitro uptake (TGP61 cells): 3.11±0.41%
in vitro uptake (PC12 cells): 2.97±0.24 % (incubated dose/million cells)
